We go through 6 compounds from patent publication US7186879B2, “Screening systems and methods for identifying modulators of xenobiotic metabolism” (Baylor College of Medicine, priority 2001, dated 2007).

The test system of data set [1] is CAR. Kind of data set: Hepatoprotection after APAP (serum ALT, histology). How it is done: (§1) Wild-type mice (n=3 per group) were administered a 500 mg/kg dose of APAP by intraperitoneal injection.
(§2) For comparison, N-acetylcysteine (1 g/kg, purchased from Sigma and dissolved in PBS) was administered intraperitoneally to other mice.

For data set [2], the target named is T1, CAR (Mus musculus, UniProt O35627, M138L).
T1 sequence (O35627 1-358 M138L): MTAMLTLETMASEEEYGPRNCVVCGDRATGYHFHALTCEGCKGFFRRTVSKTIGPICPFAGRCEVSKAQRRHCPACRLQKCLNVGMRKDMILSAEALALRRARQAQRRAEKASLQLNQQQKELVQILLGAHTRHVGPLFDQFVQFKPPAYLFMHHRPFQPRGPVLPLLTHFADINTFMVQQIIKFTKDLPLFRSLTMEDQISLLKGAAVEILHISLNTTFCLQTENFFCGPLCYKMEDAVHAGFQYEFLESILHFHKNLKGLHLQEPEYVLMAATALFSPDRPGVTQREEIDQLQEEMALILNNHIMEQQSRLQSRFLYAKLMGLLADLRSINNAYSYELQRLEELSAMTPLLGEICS
The data set can be described thus: Hepatoprotection after APAP (serum ALT, histology). The conditions noted are these: for protective effect, androstanol compared with N-acetylcysteine: wild-type mice, one and three hours after APAP 500 mg/kg, androstanol 100 mg/kg, N-acetylcysteine 1 g/kg. How it is done: as §1, §2

The target in data set [3] is T2, CAR (Mus musculus, UniProt O35627).
T2 sequence (O35627 1-358 M138L): T1 sequence (O35627 1-358 M138L)
Kind of data set: Hepatoprotection after APAP (serum ALT, histology). The protocol:
as §1, §2

The target in data set [4] is T3, murine CAR receptor (Mus musculus, UniProt O35627, M138L).
T3 sequence (O35627 1-358 M138L): T1 sequence (O35627 1-358 M138L)
The note with it: cited from earlier work.

The target in data set [5] is T4, human CAR (Homo sapiens, UniProt Q14994).
T4 sequence (Q14994 1-348 isoform Q14994-2): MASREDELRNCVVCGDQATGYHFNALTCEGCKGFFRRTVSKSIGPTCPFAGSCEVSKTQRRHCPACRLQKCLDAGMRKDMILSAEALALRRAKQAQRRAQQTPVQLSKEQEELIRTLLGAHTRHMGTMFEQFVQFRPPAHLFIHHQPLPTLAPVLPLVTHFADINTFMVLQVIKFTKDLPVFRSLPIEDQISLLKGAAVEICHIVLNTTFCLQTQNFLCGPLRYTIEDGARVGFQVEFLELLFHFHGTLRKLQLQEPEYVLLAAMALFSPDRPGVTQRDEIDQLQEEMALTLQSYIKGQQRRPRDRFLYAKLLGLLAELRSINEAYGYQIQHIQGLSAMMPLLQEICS
The note with it: cited from earlier work.

Data set [6] has as its target T5, murine CAR receptor (Mus musculus, UniProt O35627).
T5 sequence (O35627 1-358 M138L): T1 sequence (O35627 1-358 M138L)
Kind of data set: Ligand activity on murine CAR receptor.

The subject of data set [7] is CYP2E1, CYP1A2, CYP3A11, GSTPi. Kind of data set: Northern blot of APAP metabolizing genes in liver of wild-type and CAR null mice. The conditions noted are these: mouse, in vivo, 500 mg/kg, 2 h. The protocol:
CAR (+/+) or CAR (−/−) animals pretreated with phenobarbital (PB), TCPOBOP (TC), or vehicle alone were administered a 250 mg/kg dose of APAP by intraperitoneal injection (n=5–7 per treatment group) (FIG. 11A). […] Liver sections from different treatments were examined by histological staining (FIG. 11B). Liver samples from all treated animals were analyzed but only representative histology is presented. […] CAR (+/+) or CAR (−/−) animals were pretreated with PB, TCPOBOP (TC), or vehicle alone for three days (FIG. 11C). […] Liver samples treated as indicated were collected two hours after APAP and GSH levels were measured (n=5–7) (FIG. 11D).
CAR (+/+) and CAR (−/−) animals were given 250 mg/kg, 500 mg/kg, or 800 mg/kg doses of APAP, respectively (FIG. 12A). […] Total liver RNA was prepared from 500 mg/kg APAP treated CAR (+/+) and CAR (−/−) livers at 0 and 2 hours as indicated. […] The same blot was stripped and re-probed with β-actin as loading control.
For histologic examination of the treated mice, the left lobe of the livers was removed and immediately fixed in 4% formaldehyde-PBS solution, embedded in paraffin, sectioned at 5 μm, and stained with hematoxylin and eosin. Samples were examined under a light microscope. For RNA studies, total RNA was extracted using TRIzol Reagent (Invitrogen Life Technologies, Carlsbad, Calif.) according to the manufacture's instruction. Equivalent amount of RNA from 3–5 mice were pooled and 10 μg of each sample was subjected to northern blot analysis. […] Hepatic non-protein thiol was measured as an indication of hepatic GSH content. Mice were sacrificed two hours after intraperitoneal injection with APAP. […] Supernatant (0.5 ml) was mixed with 1.5 ml 0.1 mM Ellman's reagent [5,5′-dithio-bis(2-nitrobenzoic acid)] […] Absorbance was read at 412 nm using GSH solutions as quantitative standards.

In data set [8] the target is T4, human CAR. The data set can be described thus: Northern blot of gene induction in CAR humanized mice. The note with it: 500 mg/kg.
Description: CAR humanized mice (n=3) were treated with 500 mg/kg APAP or vehicle. After two hours, total liver RNA was prepared and subjected to Northern blot analysis with indicated probes.
In data set [9] the test system is wild-type and CAR knockout mice. Kind of data set: APAP toxicity after pretreatment with inducers (serum ALT, histology). Format: in vivo, mouse. The note with it: mouse, in vivo. The protocol:
CAR (+/+) or CAR (−/−) animals pretreated with phenobarbital (PB), TCPOBOP (TC), or vehicle alone were administered a 250 mg/kg dose of APAP by intraperitoneal injection (n=5–7 per treatment group) (FIG. 11A). Serum was collected and alanine aminotransferase (ALT) levels were measured after 24 hours. Liver sections from different treatments were examined by histological staining (FIG. 11B). Liver samples from all treated animals were analyzed but only representative histology is presented. […] CAR (+/+) or CAR (−/−) animals were pretreated with PB, TCPOBOP (TC), or vehicle alone for three days (FIG. 11C). […] Liver samples treated as indicated were collected two hours after APAP and GSH levels were measured (n=5–7) (FIG. 11D).
The effect of PB and the potent CAR agonist TCPOBOP on APAP toxicity was examined in wild-type and CAR knockout mice. Both strains of mice were treated with inducers or the vehicle control, followed by 250 mg/kg APAP. For these studies, mice were kept in a pathogen-free animal facility under standard 12 hour light/12 hour dark cycle and fed standard rodent chow and water ad libitum. At least five mice between 8 and 10 weeks old were used in each treatment group. For 3-day PB (100 mg/kg) treatment, mice were injected intraperitoneally three times, one injection per day. TCPOBOP (3 mg/kg) and/or APAP were injected intraperitoneally. Phenobarbital and TCPOBOP were suspended or dissolved in corn oil, and APAP was dissolved in basic PBS (pH=11). PB and APAP were purchased from Sigma (St Louis, Mo.); TCPOBOP was a gift from Dr. Stephen Safe.
For histologic examination of the treated mice, the left lobe of the livers was removed and immediately fixed in 4% formaldehyde-PBS solution, embedded in paraffin, sectioned at 5 μm, and stained with hematoxylin and eosin. Samples were examined under a light microscope. For RNA studies, total RNA was extracted using TRIzol Reagent (Invitrogen Life Technologies, Carlsbad, Calif.) according to the manufacture's instruction. Equivalent amount of RNA from 3–5 mice were pooled and 10 μg of each sample was subjected to northern blot analysis. […] Preparation of probes for CYP2B10 and CYP3A11 were described as previously (Wei et al., Nature 407:920–923, 2000 and Zelko et al., Mol Cell Biol 21:2838–2846, 2001). PCR primers used were: CYP1A2: 5′-[…]-3′ (SEQ ID NO: 19) and 5′-[…]-3′ (SEQ ID NO: 20), CYP2E1: 5′-[…]-3′ (SEQ ID NO: 21) and 5′-[…]-3′ (SEQ ID NO: 22), GSTPi: 5′-[…]-3′ (SEQ ID NO: 23) and 5′-[…]-3′ (SEQ ID NO: 24). Hepatic non-protein thiol was measured as an indication of hepatic GSH content. Mice were sacrificed two hours after intraperitoneal injection with APAP. Livers were removed and immediately homogenized in four volumes of 5% trichloroacetic acid and then centrifuged at 1,600×g for 15 minutes. Supernatant (0.5 ml) was mixed with 1.5 ml 0.1 mM Ellman's reagent [5,5′-dithio-bis(2-nitrobenzoic acid)] (Sigma, St Louis, Mo.) and allowed to stand at room temperature for 15 minutes. Absorbance was read at 412 nm using GSH solutions as quantitative standards.

The target of another data set is T6, PXR (Mus musculus, UniProt O54915).
T6 sequence (O54915 1-431): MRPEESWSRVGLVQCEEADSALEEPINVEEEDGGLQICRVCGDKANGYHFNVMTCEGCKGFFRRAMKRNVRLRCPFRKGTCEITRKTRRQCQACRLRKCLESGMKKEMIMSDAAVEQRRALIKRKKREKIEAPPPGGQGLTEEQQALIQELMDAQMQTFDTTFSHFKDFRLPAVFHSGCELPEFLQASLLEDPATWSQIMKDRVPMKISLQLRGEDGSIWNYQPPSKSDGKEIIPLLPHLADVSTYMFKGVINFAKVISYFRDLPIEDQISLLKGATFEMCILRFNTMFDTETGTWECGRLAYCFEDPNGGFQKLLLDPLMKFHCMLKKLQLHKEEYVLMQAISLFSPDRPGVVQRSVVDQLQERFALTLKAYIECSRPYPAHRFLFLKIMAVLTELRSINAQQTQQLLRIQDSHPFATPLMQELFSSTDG
The conditions noted are these: cited from earlier work.

The test system of data set [10] is wild-type and CAR null mice. The note with it: mouse, in vivo. From the text: To rule out the possibility that the CAR knockout animals are somehow resistant to NAPQI, the metabolite was directly injected into the livers of both wild-type and CAR null mice, and serum ALT levels were increased 5 to 10 fold in both. Thus, that both increased NAPQI production and GSH depletion may contribute to xenobiotic induced APAP toxicity.

The mark [11] stands for this setting: CAR humanized mice, two hours, densitometry.

Entries after “also recorded” stand apart in the source; their conditions may differ.

In the case of `C[C@@]12CCC[C@H]1[C@@H]1CC[C@H]3C[C@H](O)CC[C@]3(C)[C@H]1CC2` [androstanol, 5α-androstan-3α-ol], in the data set on CAR [1] (CAR knockout animals, APAP 500 mg/kg, androstanol 100 mg/kg i.p.), the “hepatotoxicity, treatment after APAP” value is recorded as “did not block toxicity”. The “serum ALT, androstanol and APAP versus APAP alone” value in the data set on CAR [1] (CAR −/− animals) was “somewhat higher”. In the data set with CAR [1] (androstanol at one and three hours after APAP 500 mg/kg), the “ALT levels, CAR (+/+) versus CAR (−/−) animals” value is listed as “significantly lower ALT levels”. For the same compound, on CAR [2] (relative to wild-type control), the “protective effect, treatment five hours after APAP” value is listed as “no protective effect”. The “protective effect, androstanol compared with N-acetylcysteine” value on CAR [2] is “very similar”. For the same compound, on CAR [3] (wild-type mice), the “APAP toxicity after pretreatment” value was “decreases APAP toxicity”. The “serum ALT, treatment three hours after APAP” value at CAR [3] (wild-type mice relative to untreated wild-type) is given as “somewhat lower serum ALT levels”. For the same compound, the “hepatotoxicity, treatment one hour after APAP” value at CAR [3] (wild-type mice, APAP 500 mg/kg, androstanol 100 mg/kg i.p.) was “blocked hepatotoxicity; also recorded: nearly complete absence of hepatotoxicity”. Further, the “activity on murine CAR receptor” value at murine CAR receptor [4] was “can be blocked”. The “activity on human CAR receptor” value on human CAR [5] is “not human CAR”.
`CC(=O)Nc1ccc(O)cc1` [APAP, N-acetyl-p-aminophenol]: the CAR agonist function entry at murine CAR receptor [6] is “neither APAP nor NAPQI functions as a CAR agonist”. In [7], the “induction of CYP1A2 mRNA” value was “approximately 2.8 fold”, the “induction of CYP3A11 mRNA” value is roughly 4.4 fold and the “induction of GSTPi mRNA” value is given as roughly 3.9 fold. Further, the “activation of human CAR” value on human CAR [8] (CAR humanized mice) is “human CAR is activated by APAP”. Besides, at human CAR [8] (setting [11]), the “induction of CYP1A2 mRNA” value is reported as 1.8 fold, the “induction of CYP3A11 mRNA” value stood at 2.4 fold and the “induction of GSTPi mRNA” value was 1.8 fold. Besides, the “expression of CYP1A2, CYP3A11 and GSTPi” value at human CAR [8] (humanized mice) is on record as “increased expression”.
With `Clc1ccccc1C(c1ccccc1)(c1ccccc1)n1ccnc1` [clotrimazole], at human CAR [5], the “activity on human CAR receptor” value was “inverse agonist of human”.
With `CC(=O)N[C@@H](CS)C(=O)O` [N-acetylcysteine], the “protective effect, androstanol compared with N-acetylcysteine” value on CAR [2] was “very similar”.
Consider `CC(=O)[C@H]1[C@H](C#N)C[C@H]2[C@@H]3CC=C4C[C@@H](O)CC[C@]4(C)[C@H]3CC[C@@]21C` [PCN, 5-pregnen-3b-ol-20-one-16a-carbonitrile], for which the “sensitivity to APAP” value in data set [9] was “increase in sensitivity to APAP comparable to that observed with TCPOBOP pretreatment”. In addition, the PXR agonism result at PXR was “strong PXR agonist”.
Regarding `CC(=O)N=C1C=CC(=O)C=C1` [NAPQI, N-acetyl-p-benzoquinone imine], the CAR agonist function entry at murine CAR receptor [6] is given as “neither APAP nor NAPQI functions as a CAR agonist”. Also, the “increase of serum ALT levels” value in data set [10] was 5-10 fold.
